Experiment: Surgical Bioavailability Assay
Assay type: in vivo
Conditions: pig; octreotide; porcine surgical model, device/dosage form placed in the intestine (jejunum, ileum); from active agent levels in blood samples; FIG. 23
Method: To determine bioavailability, mucoadhesive devices according to aspects of the present disclosure, as well as comparative dosage forms, are tested by a surgical model (Surgical Bioavailability Assay).
Surgical Bioavailability Assay. In the Surgical Bioavailability Assay, a porcine model is used, in which the animals undergo open surgery such that devices and/or dosage forms to be tested can be placed at regions of the intestine of interest, such as the jejunum and ileum. After administration of anesthesia, a ventral midline incision is made to gain access to the animal's abdominal cavity. The jejunum and ileum are exposed, and incisions are made to manually place the devices and/or dosage forms being tested. After placement of the device and/or dosage form is complete, the intestinal incisions are closed, and the midline incision can also be temporarily closed. Also, access can be made for blood collection via the carotid artery or jugular vein. The animal can be kept under anesthesia for up to 4 hours to allow for blood collection, such as at 5 mins, 15 mins, 30 mins, 60 mins, 90 mins, and 2 hours after oral dosage form placement. Blood samples can also be collected prior to the surgical procedure. The percent bioavailability of the active agent provided with the devices and/or dosage forms is determined on the basis of the active agent levels detected in these blood samples. […]

Which bioavailability does the source give for `C[C@@H](O)[C@@H]1NC(=O)[C@H](CCCCN)NC(=O)[C@@H](Cc2c[nH]c3ccccc23)NC(=O)[C@H](Cc2ccccc2)NC(=O)[C@@H](NC(=O)[C@H](N)Cc2ccccc2)CSSC[C@@H](C(=O)N[C@H](CO)[C@@H](C)O)NC1=O` [octreotide solution, octreotide] here?
Its bioavailability is ~1%.

— patent US20210236784A1, “DEVICE FOR ORAL DELIVERY OF ACTIVE AGENTS” (Entrega Inc., priority 2015, published 2021)
